Assay [1] deals with T1, SYK (Homo sapiens, UniProt P43405).
T1 construct: Purified human, full-length SYK, KDR; purchased Carna Biosciences
The assay is described as follows: Kinase inhibition assay, SYK.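 For all read-outs here: purified full-length human SYK pre-incubated 30 min with compound, then ULight-TK peptide phosphorylation for 1 h, detected with Europium-labeled antibody in Lance buffer.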 The class given is biochemical. The conditions noted are these: for pIC50: biochemical potency.

The target in assay [2] is T2, EGFR mutant L858R/T790M (Homo sapiens, UniProt P00533, L858R/T790M).
T2 construct: truncated human JAK3, EGFR mutants such as del E746-A750; purchased Carna Biosciences
T2 sequence (P00533 669-1210 T790M/L858R limits assumed): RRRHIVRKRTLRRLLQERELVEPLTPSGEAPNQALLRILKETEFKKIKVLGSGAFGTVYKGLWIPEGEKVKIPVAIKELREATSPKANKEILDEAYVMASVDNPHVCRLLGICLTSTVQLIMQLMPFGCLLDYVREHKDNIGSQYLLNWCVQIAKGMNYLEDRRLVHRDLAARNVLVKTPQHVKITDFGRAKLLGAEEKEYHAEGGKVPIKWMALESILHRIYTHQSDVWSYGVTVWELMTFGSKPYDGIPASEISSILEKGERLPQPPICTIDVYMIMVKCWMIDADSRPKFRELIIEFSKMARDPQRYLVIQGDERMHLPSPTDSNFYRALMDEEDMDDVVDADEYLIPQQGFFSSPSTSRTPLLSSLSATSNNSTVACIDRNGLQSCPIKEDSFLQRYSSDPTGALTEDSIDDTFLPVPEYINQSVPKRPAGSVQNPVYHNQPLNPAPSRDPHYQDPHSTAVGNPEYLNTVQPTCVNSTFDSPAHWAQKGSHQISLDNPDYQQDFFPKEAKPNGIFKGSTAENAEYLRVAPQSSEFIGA
The assay is described as follows: Kinase inhibition assay, EGFR L858R/T790M.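 Note: truncated human enzyme preincubated two hours with compound, then one hour with one millimolar ATP and ULight-PolyGT peptide, Europium-labeled antibody detection, IC50.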 The assay is classed as biochemical. Particulars: read-out: EGFR mutants L858R/T790M.

The target of assay [3] is T3, EGFR mutant L858R (Homo sapiens, UniProt P00533, L858R).
T3 construct: truncated human JAK3, EGFR mutants such as del E746-A750; purchased Carna Biosciences
T3 sequence (P00533 669-1210 L858R limits assumed): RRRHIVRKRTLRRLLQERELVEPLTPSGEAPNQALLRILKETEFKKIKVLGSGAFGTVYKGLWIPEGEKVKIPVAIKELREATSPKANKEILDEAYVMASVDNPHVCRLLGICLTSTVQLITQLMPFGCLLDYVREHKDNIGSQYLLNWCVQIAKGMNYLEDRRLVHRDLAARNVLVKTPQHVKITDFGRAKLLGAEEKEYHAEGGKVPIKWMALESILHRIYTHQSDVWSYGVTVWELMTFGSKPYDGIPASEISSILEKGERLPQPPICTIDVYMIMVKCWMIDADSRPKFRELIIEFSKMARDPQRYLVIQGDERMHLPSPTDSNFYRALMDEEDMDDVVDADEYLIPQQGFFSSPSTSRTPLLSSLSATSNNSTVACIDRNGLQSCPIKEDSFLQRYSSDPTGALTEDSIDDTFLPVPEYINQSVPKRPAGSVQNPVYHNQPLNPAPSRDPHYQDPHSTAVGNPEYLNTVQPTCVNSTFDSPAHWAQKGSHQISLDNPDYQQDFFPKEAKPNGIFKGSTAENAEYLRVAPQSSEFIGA
Kind of assay: Kinase inhibition assay, EGFR L858R.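 Note: truncated human EGFR L858R kinase with compound preincubation, ULight-PolyGT peptide phosphorylation read by Europium-antibody Lance detection, IC50.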 The assay is classed as biochemical. The conditions noted are these: read-out: EGFR mutants L858R.

Assay [4] has as its system H1975 (EGFR L858R/T790M mutant). Kind of assay: Cell viability assay, H1975.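 For all read-outs here: NSCLC cells whose survival relies on EGFR L858R/T790M, exposed 72 h to serially diluted compound, ATP-based viability readout, with the H2073 line (wildtype EGFR dependent) as wildtype comparator.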 The assay is classed as cell-based. Particulars: for pIC50: Homo sapiens, NCI-H1975, cellular potency, 72-hour incubation, ATPLite, read-out: EGFR Mutants H1975; for Selectivity over wildtype, Wildtype vs mutant H2073/H1975 (fold): cellular potency ratio. For orientation: In ATP-based viability assays light output follows the ATP content of the culture.

Assay [5] addresses T4, p-EGFR L858R/T790M (Homo sapiens, UniProt P00533, L858R/T790M).
T4 construct: phosphorylation of mutant EGFR in NSCLC lines H1975; endogenous in cells; host or cells: H1975
Kind of assay: Western analysis, H1975 p-EGFR L858R/T790M. The class given is cell-based. The conditions noted are these: for Selectivity over wildtype: p-wildtype over p-EGFR L858R, T790M: H1299 vs H1975; for pIC50: molecular potency, 4 hours; for inhibition against p-EGFR L858R/T790M (in words): Western, FIG. 1.

Assay [6] has as its target T5, JAK3 (Homo sapiens, UniProt P52333).
T5 construct: EGFR and JAK3 (JH1domain-catalytic) kinases, and mutant forms thereof; purchased Carna Biosciences
The assay is described as follows: Kinase inhibition assay, JAK3.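 Note: IC50 against purified truncated human JAK3 preincubated with compound, then reacted with ATP and ULight-Jak1 peptide, phosphorylation read by Europium-labeled antibody LANCE detection.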 The conditions noted are these: biochemical potency.

Assay [7] deals with T6, EGFR mutant Del19/T790M (Homo sapiens, UniProt P00533, DEL746-750/T790M).
T6 construct: truncated human JAK3, EGFR mutants such as del E746-A750; purchased Carna Biosciences
T6 sequence (P00533 with tags, fused parts or gaps DEL746-750/T790M limits assumed): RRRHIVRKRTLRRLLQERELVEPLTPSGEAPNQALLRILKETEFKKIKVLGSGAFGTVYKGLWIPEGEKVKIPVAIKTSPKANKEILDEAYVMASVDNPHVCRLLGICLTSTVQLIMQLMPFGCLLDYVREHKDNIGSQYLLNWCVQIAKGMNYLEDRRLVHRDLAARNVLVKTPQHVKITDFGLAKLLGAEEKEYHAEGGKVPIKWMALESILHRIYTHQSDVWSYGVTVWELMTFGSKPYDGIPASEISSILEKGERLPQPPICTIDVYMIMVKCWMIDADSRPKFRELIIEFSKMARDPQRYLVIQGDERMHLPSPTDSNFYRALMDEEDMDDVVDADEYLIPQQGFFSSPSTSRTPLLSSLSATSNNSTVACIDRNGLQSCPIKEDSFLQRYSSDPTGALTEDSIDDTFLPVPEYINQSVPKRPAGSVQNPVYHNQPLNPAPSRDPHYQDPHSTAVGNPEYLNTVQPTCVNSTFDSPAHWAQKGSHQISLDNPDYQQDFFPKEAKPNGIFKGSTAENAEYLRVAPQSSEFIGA
The assay is described as follows: Kinase inhibition assay, EGFR del E746-A750/T790M. The assay is classed as biochemical. The conditions noted are these: read-out: EGFR mutants Del19/T790M.

In assay [8] the target is T7, EGFR mutant T790M (Homo sapiens, UniProt P00533, T790M).
T7 construct: truncated human JAK3, EGFR mutants such as del E746-A750; purchased Carna Biosciences
Kind of assay: Kinase inhibition assay, EGFR mutant T790M.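 Note: truncated human EGFR mutant enzyme preincubated two hours with compound, then ATP plus ULight-PolyGT peptide for one hour, Europium-labeled antibody LANCE detection, IC50.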 Particulars: biochemical potency.

In assay [9] the target is T8, p-EGFR wildtype (Homo sapiens, UniProt P00533).
T8 construct: endogenous in cells; host or cells: H1299
T8 sequence (P00533 25-1210): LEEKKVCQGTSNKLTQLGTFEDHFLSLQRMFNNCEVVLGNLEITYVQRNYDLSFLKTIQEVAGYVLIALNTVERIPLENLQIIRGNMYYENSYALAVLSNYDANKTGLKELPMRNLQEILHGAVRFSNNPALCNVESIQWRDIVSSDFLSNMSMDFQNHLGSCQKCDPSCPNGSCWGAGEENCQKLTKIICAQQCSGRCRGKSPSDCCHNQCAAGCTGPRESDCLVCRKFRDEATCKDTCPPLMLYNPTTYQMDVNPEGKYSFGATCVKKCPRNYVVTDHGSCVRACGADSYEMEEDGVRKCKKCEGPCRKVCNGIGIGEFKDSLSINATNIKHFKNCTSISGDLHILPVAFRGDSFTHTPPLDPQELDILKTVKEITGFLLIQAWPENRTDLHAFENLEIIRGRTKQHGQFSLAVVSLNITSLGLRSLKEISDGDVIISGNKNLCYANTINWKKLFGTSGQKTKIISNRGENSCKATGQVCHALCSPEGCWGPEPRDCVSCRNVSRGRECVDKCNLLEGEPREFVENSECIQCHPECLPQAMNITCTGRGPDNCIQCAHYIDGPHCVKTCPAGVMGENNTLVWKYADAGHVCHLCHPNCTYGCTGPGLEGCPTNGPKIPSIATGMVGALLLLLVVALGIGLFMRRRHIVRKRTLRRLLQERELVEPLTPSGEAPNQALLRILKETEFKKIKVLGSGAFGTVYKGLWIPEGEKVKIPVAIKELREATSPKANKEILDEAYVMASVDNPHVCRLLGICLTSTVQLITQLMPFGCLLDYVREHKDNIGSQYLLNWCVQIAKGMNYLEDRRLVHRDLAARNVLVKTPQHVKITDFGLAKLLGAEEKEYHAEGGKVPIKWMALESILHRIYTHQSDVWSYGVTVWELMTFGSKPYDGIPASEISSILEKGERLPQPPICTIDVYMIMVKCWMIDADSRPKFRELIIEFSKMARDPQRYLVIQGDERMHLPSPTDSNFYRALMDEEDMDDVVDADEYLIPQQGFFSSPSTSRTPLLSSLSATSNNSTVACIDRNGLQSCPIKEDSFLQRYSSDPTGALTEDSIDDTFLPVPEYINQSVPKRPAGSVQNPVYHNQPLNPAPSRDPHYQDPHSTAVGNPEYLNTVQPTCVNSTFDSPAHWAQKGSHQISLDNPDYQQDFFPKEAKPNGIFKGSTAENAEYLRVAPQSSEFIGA
Kind of assay: Western analysis, H1299 p-EGFR wildtype. The assay is classed as cell-based. The conditions noted are these: for pIC50: molecular potency, 4 hours, 3 nM EGF ligand; for inhibition against p-EGFR wildtype (in words): Western, FIG. 1.

Assay [10] addresses T9, KDR (Homo sapiens, UniProt P35968).
T9 construct: Purified human, full-length SYK, KDR; purchased Carna Biosciences
The assay is described as follows: Kinase inhibition assay, KDR.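 For all read-outs here: purified full-length human KDR, 30 min preincubation with compound, then 1 h reaction with ATP and Ulight-Jak1 peptide substrate, phosphorylation read by Lance Europium antibody detection.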 The assay is classed as biochemical. Particulars: for pIC50: biochemical potency.

For assay [11], the target named is T10, EGFR mutant Del19 (E746-A750) (Homo sapiens, UniProt P00533, DEL746-750).
T10 construct: truncated human JAK3, EGFR mutants such as del E746-A750; purchased Carna Biosciences
T10 sequence (P00533 with tags, fused parts or gaps DEL746-750 limits assumed): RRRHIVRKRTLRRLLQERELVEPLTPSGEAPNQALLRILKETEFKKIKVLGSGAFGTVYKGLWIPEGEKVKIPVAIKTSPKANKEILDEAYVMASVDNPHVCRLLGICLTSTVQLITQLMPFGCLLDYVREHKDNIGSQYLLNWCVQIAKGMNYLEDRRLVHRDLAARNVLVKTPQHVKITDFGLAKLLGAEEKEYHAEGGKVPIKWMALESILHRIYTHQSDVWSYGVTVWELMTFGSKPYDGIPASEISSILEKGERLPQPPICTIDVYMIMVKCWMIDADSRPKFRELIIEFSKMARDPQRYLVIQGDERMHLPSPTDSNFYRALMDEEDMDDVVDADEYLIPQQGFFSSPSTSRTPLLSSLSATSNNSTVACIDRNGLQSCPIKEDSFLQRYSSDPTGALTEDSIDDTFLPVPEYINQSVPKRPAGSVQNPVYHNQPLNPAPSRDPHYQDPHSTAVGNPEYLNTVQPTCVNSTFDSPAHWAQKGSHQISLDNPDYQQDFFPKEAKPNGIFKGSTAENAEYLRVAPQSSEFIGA
The assay is described as follows: Kinase inhibition assay, EGFR del E746-A750.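 Note: truncated human EGFR mutant kinase, two-hour preincubation with compound, then one-hour reaction with ATP and ULight-PolyGT peptide, LANCE Europium-antibody phosphorylation readout, IC50.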 The assay is classed as biochemical. The conditions noted are these: read-out: EGFR mutants Del19 (E746-A750).

Assay [12] addresses T11, p-EGFR del E746-A750 (Homo sapiens, UniProt P00533, DEL746-750).
T11 construct: phosphorylation of mutant EGFR in NSCLC lines PC9; endogenous in cells; host or cells: PC9
The assay is described as follows: Western analysis, PC9 p-EGFR del E746-A750. Particulars: for Selectivity over wildtype: p-wildtype over p-EGFR del19: H1299 vs PC9; for pIC50: molecular potency, 4 hours, read-out: PC9 p-EGFR del 19 (E746-A750); for inhibition against p-EGFR del E746-A750 (in words): Western, FIG. 1. The assay is classed as cell-based.

Assay [13] has as its system H2073 (EGFR wildtype). Kind of assay: Cell viability assay, H2073.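 For all read-outs here: NSCLC cell line whose survival relies on wildtype EGFR, treated with serially diluted compound, cytotoxic effect judged from remaining cell viability.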 The assay is classed as cell-based. Particulars: for pIC50: NCI-H2073, cellular potency, 72-hour incubation, ATPLite.
Assay [14] concerns PC9 (EGFR del E746-A750 mutant). Kind of assay: Cell viability assay, PC9.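 For all read-outs here: NSCLC PC9 cells, whose viability relies on EGFR del E746-A750, exposed to serially diluted compound for 72 h at 37 °C, ATPLite read-out, IC50, H2073 as EGFR wildtype line.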 The class given is cell-based. The conditions noted are these: for Selectivity over wildtype, Wildtype vs mutant H2073/PC9 (fold): cellular potency ratio; for pIC50: cellular potency, 72-hour incubation, ATPLite, read-out: EGFR Mutants PC9.
[15] abbreviates: approximate ATP Km concentration.

pIC50: −log10 of the molar value.

T4 sequence (P00533 25-1210 T790M/L858R): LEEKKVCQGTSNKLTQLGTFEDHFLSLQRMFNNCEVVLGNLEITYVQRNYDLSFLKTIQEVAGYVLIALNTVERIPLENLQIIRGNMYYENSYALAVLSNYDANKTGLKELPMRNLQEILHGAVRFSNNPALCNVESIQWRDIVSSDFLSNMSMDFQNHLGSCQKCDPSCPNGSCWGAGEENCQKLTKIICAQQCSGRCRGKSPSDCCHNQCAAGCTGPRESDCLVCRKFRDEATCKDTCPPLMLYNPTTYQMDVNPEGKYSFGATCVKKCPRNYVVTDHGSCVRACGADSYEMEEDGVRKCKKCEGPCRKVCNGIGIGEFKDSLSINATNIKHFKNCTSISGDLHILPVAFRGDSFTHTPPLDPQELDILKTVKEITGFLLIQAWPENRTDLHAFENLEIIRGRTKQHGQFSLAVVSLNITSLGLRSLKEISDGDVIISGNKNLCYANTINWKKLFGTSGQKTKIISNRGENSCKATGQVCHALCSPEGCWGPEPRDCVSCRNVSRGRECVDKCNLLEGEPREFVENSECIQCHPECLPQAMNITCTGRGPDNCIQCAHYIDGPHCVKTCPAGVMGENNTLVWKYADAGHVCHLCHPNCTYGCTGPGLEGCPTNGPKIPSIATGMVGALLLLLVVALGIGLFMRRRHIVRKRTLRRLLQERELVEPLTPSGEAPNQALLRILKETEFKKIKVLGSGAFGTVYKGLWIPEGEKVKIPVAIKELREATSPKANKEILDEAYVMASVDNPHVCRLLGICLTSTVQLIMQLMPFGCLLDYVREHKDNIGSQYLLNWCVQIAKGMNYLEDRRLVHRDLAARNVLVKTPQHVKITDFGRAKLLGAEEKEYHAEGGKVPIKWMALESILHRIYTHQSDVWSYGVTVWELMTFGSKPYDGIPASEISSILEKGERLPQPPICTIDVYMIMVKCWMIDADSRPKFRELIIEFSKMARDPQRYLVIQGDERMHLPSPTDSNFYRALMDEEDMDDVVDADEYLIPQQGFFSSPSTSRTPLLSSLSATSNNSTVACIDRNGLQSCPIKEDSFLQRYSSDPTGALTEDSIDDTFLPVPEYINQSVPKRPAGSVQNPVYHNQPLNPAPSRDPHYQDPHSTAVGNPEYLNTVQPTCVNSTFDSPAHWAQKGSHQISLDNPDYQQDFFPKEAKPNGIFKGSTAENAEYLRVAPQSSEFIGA
T5 sequence (P52333 822-1111 limits assumed): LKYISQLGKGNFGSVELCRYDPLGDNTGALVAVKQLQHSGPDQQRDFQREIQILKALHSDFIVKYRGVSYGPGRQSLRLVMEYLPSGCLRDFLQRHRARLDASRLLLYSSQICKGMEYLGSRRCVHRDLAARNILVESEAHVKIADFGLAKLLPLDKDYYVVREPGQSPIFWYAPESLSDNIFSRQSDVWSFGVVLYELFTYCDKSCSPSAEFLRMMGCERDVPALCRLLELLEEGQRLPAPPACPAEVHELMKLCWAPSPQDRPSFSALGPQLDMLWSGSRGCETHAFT

Turning to `C=CC(=O)Nc1cc(Nc2nccc(-n3cc(CN4CCC4)c(-c4ccccc4)n3)n2)c(OC)cc1N1CCOCC1` [Compound 78, N-(5-(4-(4-(azetidin-1-ylmethyl)-3-phenyl-1H-pyrazol-1-yl)pyrimidin-2-ylamino)-4-methoxy-2-morpholinophenyl)acrylamide], the pIC50 is less than 6.00 in assay [1]; more than 7.70 in assay [2]; more than 7.70 in assay [3]; more than 7.70 in assay [4]; more than 7.70 in assay [5]; 6.70 to 7.70 in assay [6]. For the same molecule, the pIC50 is more than 7.70 in assay [7]; more than 7.70 in assay [8]; less than 6.00 in [9]; less than 6.00 in assay [10]; more than 7.70 in [11]; more than 7.70 in [12]. Also, the pIC50 in assay [13] was less than 6.00; in assay [14] it was more than 7.70. The “Selectivity over wildtype, Wildtype vs mutant H2073/H1975 (fold)” value (“Selectivity … vs mutant H2073/H1975 (fold)” below) in assay [4] is more than 200 fold. The “Selectivity over wildtype: p-wildtype over p-EGFR L858R, T790M” value (“Selectivity … over p-EGFR L858R, T790M” below) in assay [5] is reported as 101-200 fold. Moreover, the “Selectivity over wildtype: p-wildtype over p-EGFR del19” value (“Selectivity … over p-EGFR del19” for short) in assay [12] is given as more than 200 fold. Further, in assay [14], the “Selectivity over wildtype, Wildtype vs mutant H2073/PC9 (fold)” value (shortened to “Selectivity … vs mutant H2073/PC9 (fold)”) is recorded as more than 200 fold.

For the molecule `C=CC(=O)Nc1cc(Nc2ncc(C)c(-n3cc(CN4C[C@H](O)[C@H](OC)C4)c(C)n3)n2)c(OC)cc1N1CCOCC1` [Compound 26, N-(5-(4-(4-(((3S,4R)-3-hydroxy-4-methoxypyrrolidin-1-yl)methyl)-3-methyl-1H-pyrazol-1-yl)-5-methylpyrimidin-2-ylamino)-4-methoxy-2-morpholinophenyl)acrylamide], the pIC50 was 6.00 to 6.70 in [1]; more than 7.70 in assay [2]; more than 7.70 in [3]; 6.70 to 7.70 in [4]; more than 7.70 in assay [5]; more than 7.70 in assay [6]. Moreover, the pIC50 in assay [7] was more than 7.70; in assay [8], more than 7.70; in assay [9], less than 6.00; in assay [10], less than 6.00; in assay [11], more than 7.70; in [12] it was more than 7.70. In addition, the pIC50 is less than 6.00 in assay [13] and 6.70 to 7.70 in [14]. In [4], the “Selectivity … vs mutant H2073/H1975 (fold)” value is on record as 101-200 fold. The “Selectivity … over p-EGFR L858R, T790M” value was more than 200 fold in assay [5] and 1440.3 fold in assay [5] (listed as compound 26). In addition, the “inhibition against p-EGFR L858R/T790M (in words)” value in assay [5] is recorded as “potent inhibition”. Moreover, the “inhibition against p-EGFR wildtype (in words)” value in assay [9] is “not p-EGFR wildtype”. The “Selectivity … over p-EGFR del19” value in [12] is recorded as more than 200 fold; in assay [12] (listed as compound 26), 572.4 fold. Further, the “inhibition against p-EGFR del E746-A750 (in words)” value in assay [12] is listed as “potent inhibition”. Also, the “Selectivity … vs mutant H2073/PC9 (fold)” value in assay [14] was 20-100 fold.

Consider `C=CC(=O)Nc1cc(Nc2nccc(-n3cc(CN4CCC4)c(C)n3)n2)c(OC)cc1N1CCOCC1` [Compound 14, N-(5-(4-(4-(azetidin-1-ylmethyl)-3-methyl-1H-pyrazol-1-yl)pyrimidin-2-ylamino)-4-methoxy-2-morpholinophenyl)acrylamide], for which the pIC50 in assay [1] was 6.00 to 6.70; in assay [2], more than 7.70; in assay [3] it was more than 7.70; in assay [4], 6.70 to 7.70; in assay [5], more than 7.70; in [6] it was more than 7.70. Also, the pIC50 is more than 7.70 in assay [7]; more than 7.70 in [8]; less than 6.00 in assay [9]; less than 6.00 in assay [10]; more than 7.70 in assay [11]; more than 7.70 in [12]. Also, the figures for the pIC50 in assay [13] and in assay [14] were less than 6.00 and more than 7.70, respectively. The “Selectivity … vs mutant H2073/H1975 (fold)” value in assay [4] is reported as 20-100 fold. The “Selectivity … over p-EGFR L858R, T790M” value in assay [5] is listed as 20-100 fold. For the same molecule, the “Selectivity … over p-EGFR del19” value in assay [12] is given as more than 200 fold. The “Selectivity … vs mutant H2073/PC9 (fold)” value in assay [14] is given as more than 200 fold.

As to `C=CC(=O)Nc1cc(Nc2nccc(-n3cc(CN(C)C)c(-c4ccccc4)n3)n2)c(OC)cc1N1CCOCC1` [Compound 73, N-(5-(4-(4-((dimethylamino)methyl)-3-phenyl-1H-pyrazol-1-yl)pyrimidin-2-ylamino)-4-methoxy-2-morpholinophenyl)acrylamide], the “inhibition of the kinase activity of SYK (in words)” value in assay [1] (setting [15]) was “poorly inhibit”. In addition, the pIC50 is 6.00 to 6.70 in assay [1]; more than 7.70 in [2]; more than 7.70 in assay [3]; more than 7.70 in [4]; more than 7.70 in assay [5]; more than 7.70 in assay [6]. For the same molecule, the pIC50 in [7] was more than 7.70; in [8], more than 7.70; in assay [9] it was 6.00 to 6.70; in assay [10], less than 6.00; in assay [11], more than 7.70; in assay [12], more than 7.70. The pIC50 in assay [13] is less than 6.00; in assay [14], more than 7.70. Besides, the “inhibition in H1975 cell (in words)” value in assay [4] (cell viability) is “potent inhibition”. The “Selectivity … vs mutant H2073/H1975 (fold)” value in [4] and in assay [4] (listed as compound 73) was more than 200 fold in each case. For the same molecule, in assay [5], the “Selectivity … over p-EGFR L858R, T790M” value was 20-100 fold. Besides, the “inhibition against p-EGFR L858R/T790M (in words)” value in assay [5] is “potent inhibition”. In addition, in assay [9], the “inhibition against p-EGFR wildtype (in words)” value is listed as “not p-EGFR wildtype”. Besides, the “inhibition of the kinase activity of KDR (in words)” value in assay [10] (setting [15]) is recorded as “poorly inhibit”. Besides, the “Selectivity … over p-EGFR del19” value in [12] is reported as 20-100 fold. The “inhibition against p-EGFR del E746-A750 (in words)” value in assay [12] is listed as “potent inhibition”. In [13] (cell viability), the “inhibition in H2073 cell (in words)” value was “not in H2073”. For the same molecule, the “inhibition in PC9 cell (in words)” value in [14] (cell viability) is recorded as “potent inhibition”. For the same molecule, the “Selectivity … vs mutant H2073/PC9 (fold)” value in [14] and in assay [14] (listed as compound 73) was more than 200 fold each time.

As for `C=CC(=O)Nc1cc(Nc2ncc(C)c(-n3cc(CN4CCC4)cn3)n2)c(OC)cc1N(C)CCN(C)C` [Compound 42, N-(5-(4-(4-(azetidin-1-ylmethyl)-1H-pyrazol-1-yl)-5-methylpyrimidin-2-ylamino)-2-((2-(dimethylamino)ethyl)(methyl)amino)-4-methoxyphenyl)acrylamide], the pIC50 in assay [1] is less than 6.00; in assay [2], more than 7.70; in [3], 6.70 to 7.70; in [4], 6.70 to 7.70; in [6], more than 7.70; in assay [7], more than 7.70. For the same molecule, the pIC50 in [8] was more than 7.70; in assay [10] it was less than 6.00; in assay [11], more than 7.70; in [13] it was less than 6.00; in assay [14], 6.00 to 6.70. In addition, the “Selectivity … vs mutant H2073/H1975 (fold)” value in assay [4] is given as more than 200 fold. In addition, in [14], the “Selectivity … vs mutant H2073/PC9 (fold)” value is given as 20-100 fold.
